Data set [1] concerns LN-308 glioma cells. Put plainly: Cytotoxicity, LDH release and trypan blue dye exclusion. It is filed as cell-based, human. The conditions noted are these: up to 1 μM for 72 h. The method, then:
(§1) The glioma cells and CCL64 cells were maintained in DMEM supplemented with 2 mM L-glutamine (Gibco Life Technologies, Paisley, UK), 10% FCS (Biochrom KG, Berlin, Germany) and penicillin (100 IU/ml)/streptomycin (100 μg/ml) (Gibco). Growth and viability of the glioma cells was examined by crystal violet, LDH release (Roche, Mannheim, Germany) and trypan blue dye exclusion assays. To assess clonogenicity, 500 SMA-560 cells were seeded into 6 well plates (9.4 cm^2). After formation of visible cell formations, colonies>20 cells were counted.

Data set [2] relates to LN-308 glioma cells. Put plainly: Flow cytometric cell cycle analysis. It is filed as cell-based, human. The conditions noted are these: 0.01, 0.1 or 1 μM, 48 h, data not shown. The method, then: The adherent glioma cells were detached nonenzymatically using cell dissociation solution (Sigma). Cell cycle analysis was performed by using fixed and permeabilized glioma cells (70% ethanol). RNA was digested with RNase A (Life Technologies, Inc.). DNA was stained with propidium iodide (50 μg/ml).

Data set [3] deals with LN-308 glioma cells. Put plainly: Glioma cell growth, [methyl-3H]-thymidine incorporation. Type of data set: cell-based, human. The method, then:
(§2) FIG. 2. Abrogation of autocrine TGF-β signaling in glioma cells by Compound No. 79. A. The cells were seeded at 10^4 cells/well in 96 well plates and cultured in the absence or presence of Compound No. 79 for 48 h in serum-free medium. Growth was assessed by [methyl-^3H]-thymidine incorporation at 48 h (*p<0.05, t-test). B. Lysates from untreated glioma cells or cells preexposed to Compound No. 79 (1 μM) for 24 h or exposed to TGF-b2 (5 ng/ml) for 1 h or both were assessed for the levels of p-Smad2 or total Smad2/3. Note that the antibodies were specific to p-Smad2 and total Smad 2 and 3, respectively.
as §1

The subject of data set [4] is splenocytes / LAK cells against SMA-560. In words: Ex vivo immune effector assays, splenocytes of glioma-bearing mice. It is filed as in vivo, VM/Dk mice. How it is done: FIG. 4. Compound No. 79 inhibits the growth of syngeneic SMA-560 experimental gliomas in vivo and promotes immune activation. A. VM/Dk mice received an intracranial injection of 5×10^3 SMA-560 cells. Three days later treatment with Compound No. 79 was initiated, and survival was monitored. B. The animals were treated as in A, but were sacrificed on day 10 to obtain splenocytes. IFN-γ release at 24 h was assessed by Elispot. Data are expressed as cytokine-producing cells per 10^6 effector cells. C. The splenocytes were stimulated with IL-2 for 10 days to generate LAK cells. Their lytic activity was measured by ^51Cr release using SMA-560 as target cells (vehicle, open squares; Compound No. 79, filled squares) (*p<0.05, t-test).
IL-10, TNF-α and IFN-γ release by immune effector cells was assessed by Elispot assay in a multiscreen-HA 96 well plate (Millipore, Eschborn, Germany), coated with corresponding anti-human capture antibodies (Becton Dickinson). Briefly, 5×10^4 glioma cells were cocultured for 24 h with 105, 2.5×105 or 5×105 HLA-A2-mismatched, prestimulated (5 days) PBL. The cells were removed using double-distilled water, and captured cytokines were visualized using biotinylated antibodies and streptavidin-alkaline phosphatase (Becton Dickinson). Spots were counted on an Elispot reader system (AID, Straβberg, Germany). […]

For the next data set, the system named is SMA-560 glioma cells. In words: Glioma cell growth, [methyl-3H]-thymidine incorporation. It is filed as cell-based, murine. The method, then: as §2, §1
[5] abbreviates: concentrations required to block TGF-β in the CCL64 bioassay, 48 h.
[6] abbreviates: higher concentrations of up to 1 μM, FIG. 2A.

For `Fc1ccc(Cl)cc1-c1nc(Nc2ccncc2)c2nccnc2n1` [Compound No. 79], the cytotoxic effects entry in the data set with LN-308 glioma cells [1] is listed as “neiter LDH release nor trypan blue dye exclusion assays revealed cytotoxic effects”. In the data set with LN-308 glioma cells [2], the cell cycle arrest result is recorded as “no specific type of cell cycle arrest”. In addition, the proliferation result with LN-308 glioma cells [3] (setting [5]) and in the data set on SMA-560 glioma cells (setting [5]) was “no effect” throughout. The growth result in the data set with LN-308 glioma cells [3] (setting [6]) and in the data set on SMA-560 glioma cells (setting [6]) was “moderately inhibited” each time. Further, the “animals with increase over background of IFN-γ release by splenocytes” value in data set [4] (Elispot, day 7 after initiation of treatment, control 1 of 5, FIG. 4B) is on record as 3 of 5. Further, the “lytic activity of LAK cells against SMA-560 targets” value in data set [4] (splenocytes stimulated with IL-2 for 10 days, 51Cr release, FIG. 4C) was “enhanced lytic activity”.

(Values after patent publication US20050245508A1, “Treatment of malignant gliomas with TGF-beta inhibitors” (SCIOS, Inc., priority 2003, published 2005).)
